From patent publication US7671085B2, “Non-steroidal farnesoid X receptor modulators and methods for the use thereof” (The Salk Institute for Biological Studies, priority 2002, dated 2010)

Target: T1, FXR (Homo sapiens, UniProt Q96RI1)
T1 construct: using a full length FXR on a natural response element; expressed in transfected cells
T1 sequence (Q96RI1 1-486): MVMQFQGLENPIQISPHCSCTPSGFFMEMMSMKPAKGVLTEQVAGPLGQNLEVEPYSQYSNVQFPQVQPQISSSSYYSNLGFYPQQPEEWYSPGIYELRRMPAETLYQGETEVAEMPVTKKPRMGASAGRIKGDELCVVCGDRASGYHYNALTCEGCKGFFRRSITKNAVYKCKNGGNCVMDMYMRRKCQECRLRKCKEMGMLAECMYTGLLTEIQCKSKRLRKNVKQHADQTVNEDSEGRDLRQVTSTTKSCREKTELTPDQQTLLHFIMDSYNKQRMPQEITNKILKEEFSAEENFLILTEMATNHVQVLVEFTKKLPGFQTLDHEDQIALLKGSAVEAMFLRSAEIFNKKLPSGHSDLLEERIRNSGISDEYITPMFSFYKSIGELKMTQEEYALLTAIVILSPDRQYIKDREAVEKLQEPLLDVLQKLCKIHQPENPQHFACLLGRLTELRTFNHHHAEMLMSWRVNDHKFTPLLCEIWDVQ
Assay: cell-based FXR transcription assay, FXR responsive promoter linked to luciferase reporter
Conditions: for RE^a: footnote a not given; for FXR activation, in words: cell-based reporter assay, SAR discussion
Source text: In addition to ensuring that only cell permeable compounds were selected for further optimization, this approach allows for the detection of FXR activation in a natural system (i.e., correct folding of the protein and in the presence of a complete compliment of co-activators and co-repressors).
The feasibility of creating high throughput screens (HTS) for ORs was explored using FXR as a candidate orphan receptor (OR) with a known activator, chenodeoxycholic acid (CDCA) as a ligand. The screen is based on the co-transfection of a full-length receptor with the reporter vector containing a natural hormone response element under a minimal eukaryotic promoter. […] Using this 384-well format, the high throughput screening (HTS) approach to FXR as a candidate OR was employed. […] A central question in the feasibility studies is whether this library is suitable for screening for nuclear receptor ligands. Samples of this library were first reformatted into a 384-well format and then subjected to the FXR cell-based assays described above and assessed for FXR-mediated transcriptional activity. Cells were exposed to approximately 10 μM of sample for 18 hrs prior to washing and luciferase analysis.
EC50 values were determined with Prism 3.0 software via the activity of the subject compound in the previously described cell based assay.

SMILES	RE^a (cell-based FXR reporter assay)	FXR activation, in words	EC50 (cell-based FXR reporter assay, determined with Prism 3.0) [nM]
COC(=O)C=Cc1cccc(N(Cc2ccc(C=CC(=O)OC(C)(C)C)cc2)C(=O)C2CC2)c1 [Compound 140]	1.68		
COC(=O)/C=C/c1cccc(N(Cc2ccc(/C=C/C(=O)OC(C)(C)C)cc2)C(=O)c2ccccc2)c1 [Compound 143]	1.96		
COC(=O)/C=C/c1cccc(N(Cc2ccc(/C=C/C(=O)OC(C)(C)C)cc2)C(=O)c2ccco2)c1 [Compound 144]	1.93		
COC(=O)C=Cc1cccc(N(C)C(=O)C2CCCCC2)c1 [Compound 147]	0.09		
COC(=O)C=Cc1ccc(CN(C(=O)C2CCCCC2)c2cccc(C=CC(=O)OC)c2)cc1 [Compound 150]	0.87		
CCOC(=O)C=Cc1ccc(CN(C(=O)C2CCCCC2)c2cccc(C=CC(=O)OC)c2)cc1 [Compound 151]	1.14		
COC(=O)C=Cc1cccc(N(Cc2ccc(C=CC(=O)N(C)C)cc2)C(=O)C2CCCCC2)c1 [Compound 154]	0.66		
COC(=O)C=Cc1cccc(N(Cc2ccc(C=CCOc3ccccc3)cc2)C(=O)C2CCCCC2)c1 [Compound 158]	0.64	only micromolar activity	
COC(=O)C=Cc1cccc(N(Cc2ccc(C=CC(=O)OC(C)(C)C)cc2O)C(=O)C2CCCCC2)c1 [Compound 161]	0.12		
COC(=O)C=Cc1cccc(N(Cc2ccc(C=CC(=O)OC(C)(C)C)cc2OC)C(=O)C2CCCCC2)c1 [Compound 162]	0.14		
COC(=O)C=Cc1cccc(N(Cc2ccc(C=CC(=O)OC(C)(C)C)cc2OCc2ccccc2)C(=O)C2CCCCC2)c1 [Compound 163]	0.38		

Results, then the compound that gave them:

RE^a (cell-based FXR reporter assay)	FXR activation, in words	EC50 (cell-based FXR reporter assay, determined with Prism 3.0) [nM]	SMILES
0.45			CC(C)(C)OC(=O)C=Cc1ccc(CN(C(=O)C2CCCCC2)c2cccc(C=CCOc3ccccc3)c2)cc1 [Compound 138]
RE^a = 1.38	only a two-fold decrease in potency		COC(=O)CCc1cccc(N(Cc2ccc(/C=C/C(=O)OC(C)(C)C)cc2)C(=O)C2CCCCC2)c1 [Compound 139]
1.84	excellent activity		COC(=O)C=Cc1cccc(N(Cc2ccc(C=CC(=O)OC(C)(C)C)cc2)C(=O)C2CCC2)c1 [Compound 141]
2.16	excellent activity		COC(=O)C=Cc1cccc(N(Cc2ccc(C=CC(=O)OC(C)(C)C)cc2)C(=O)C2CCCC2)c1 [Compound 142]
1.96			COC(=O)/C=C/c1cccc(N(Cc2ccc(/C=C/C(=O)OC(C)(C)C)cc2)C(=O)NC(C)C)c1 [Compound 145]
0.27	only marginal efficacy		COC(=O)C=Cc1cccc(N(Cc2ccc(C=CC(=O)OC(C)(C)C)cc2)C(=O)NCc2ccccc2)c1 [Compound 146]
0.15			COC(=O)C=Cc1cccc(N(Cc2ccc(C(C)(C)C)cc2)C(=O)C2CCCCC2)c1 [Compound 148]
1.97			COC(=O)C=Cc1cccc(N(Cc2ccc(C=CC(=O)OC(C)C)cc2)C(=O)C2CCCCC2)c1 [Compound 152]
0.23			COC(=O)C=Cc1cccc(N(Cc2ccc(C=CC(=O)OCc3ccccc3)cc2)C(=O)C2CCCCC2)c1 [Compound 153]
1.65		> 1000	COC(=O)C=Cc1cccc(N(Cc2ccc(C=CC(=O)NC(C)(C)C)cc2)C(=O)C2CCCCC2)c1 [Compound 155]
1.63			COCC=Cc1ccc(CN(C(=O)C2CCCCC2)c2cccc(C=CC(=O)OC)c2)cc1 [Compound 156]
2.06			CCOCC=Cc1ccc(CN(C(=O)C2CCCCC2)c2cccc(C=CC(=O)OC)c2)cc1 [Compound 157]
1.56			COC(=O)C=Cc1cccc(N(Cc2ccc(CCC(=O)OC(C)(C)C)cc2)C(=O)C2CCCCC2)c1 [Compound 159]
0.64			CC(C)(C)OC(=O)/C=C/c1cccc(N(Cc2ccc(CCC(=O)OC(C)(C)C)cc2)C(=O)C2CCCCC2)c1 [Compound 160]
0.16			COC(=O)C=Cc1cccc(N(Cc2ccc(C=CC(=O)OC(C)(C)C)cc2OC(C)=O)C(=O)C2CCCCC2)c1 [Compound 164]
